We go through 36 compounds from ChEMBL document CHEMBL5131564, “Discovery of Potent and Selective Receptor-Interacting Serine/Threonine Protein Kinase 2 (RIPK2) Inhibitors for the Treatment of Inflammatory Bowel Diseases (IBDs)” (J Med Chem, 2022).

In series [1] the target is Receptor-interacting serine/threonine-protein kinase 2 (Homo sapiens, UniProt O43353). Nature of the series: Inhibition of human RIPK2 incubated for 120 mins in presence of [gamma33P]ATP by scintillation counting based radiometry assay.
In series [2] the target is T1, Receptor-interacting serine/threonine-protein kinase 1 (Homo sapiens) (UniProt Q13546).
T1 sequence (whole entry): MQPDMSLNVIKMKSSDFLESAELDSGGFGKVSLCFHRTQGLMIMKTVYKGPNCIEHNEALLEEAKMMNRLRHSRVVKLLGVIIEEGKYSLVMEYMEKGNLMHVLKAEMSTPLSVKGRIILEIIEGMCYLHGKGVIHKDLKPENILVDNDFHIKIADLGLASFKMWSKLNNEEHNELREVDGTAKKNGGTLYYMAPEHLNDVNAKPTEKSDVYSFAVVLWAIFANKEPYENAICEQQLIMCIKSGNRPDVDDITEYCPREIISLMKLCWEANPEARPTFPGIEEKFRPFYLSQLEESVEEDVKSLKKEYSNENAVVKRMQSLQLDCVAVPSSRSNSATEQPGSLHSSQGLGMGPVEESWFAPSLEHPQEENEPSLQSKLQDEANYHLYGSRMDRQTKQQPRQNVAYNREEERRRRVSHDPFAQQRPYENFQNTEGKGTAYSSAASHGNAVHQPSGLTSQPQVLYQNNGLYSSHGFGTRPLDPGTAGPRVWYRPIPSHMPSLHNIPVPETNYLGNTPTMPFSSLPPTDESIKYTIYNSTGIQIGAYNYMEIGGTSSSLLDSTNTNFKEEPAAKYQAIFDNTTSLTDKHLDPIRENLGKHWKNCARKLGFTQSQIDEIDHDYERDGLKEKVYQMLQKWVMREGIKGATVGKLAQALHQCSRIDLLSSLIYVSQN
Nature of the series: Inhibition of human RIPK1 assessed as active kinase incubated for 120 mins in presence of [gamma33P]ATP at 1000 nM by scintillation counting based radiometry assay relative to control. Also on record: scale not given: the % may be the effect or the level left.

Series [3] deals with Receptor-type tyrosine-protein kinase FLT3 (Homo sapiens) (UniProt P36888). Description: Inhibition of human Flt3 using EAIYAAPFAKKK peptide substrate assessed as active kinase incubated for 40 mins in presence of [gamma33P]ATP at 1000 nM by scintillation counting based radiometry assay relative to control. Also on record: scale not given: the % may be the effect or the level left.

A short description of series [4]: Inhibition of MDP-stimulated TNFalpha production in mouse RAW264.7 cells at 100 nM incubated for 22 hrs by ELISA relative to control. In kind it is functional.
Series [5] in a line: Metabolic stability in human liver microsomes assessed as half life at 1 uM by LC/MS/MS analysis. In kind it is ADME, Microsome.
A short description of series [6]: Toxicity in rat H9c2 cells assessed as inhibitory rate at 10 uM relative to control. In kind it is cell-based.
Series [7] can be described thus: Inhibition of LPS/MDP-stimulated TNFalpha production in C57BL/6J mouse BMDM cells by ELISA relative to control. In kind it is functional, cell-based.

Sequence of Receptor-type tyrosine-protein kinase FLT3 (Homo sapiens) (P36888 whole entry): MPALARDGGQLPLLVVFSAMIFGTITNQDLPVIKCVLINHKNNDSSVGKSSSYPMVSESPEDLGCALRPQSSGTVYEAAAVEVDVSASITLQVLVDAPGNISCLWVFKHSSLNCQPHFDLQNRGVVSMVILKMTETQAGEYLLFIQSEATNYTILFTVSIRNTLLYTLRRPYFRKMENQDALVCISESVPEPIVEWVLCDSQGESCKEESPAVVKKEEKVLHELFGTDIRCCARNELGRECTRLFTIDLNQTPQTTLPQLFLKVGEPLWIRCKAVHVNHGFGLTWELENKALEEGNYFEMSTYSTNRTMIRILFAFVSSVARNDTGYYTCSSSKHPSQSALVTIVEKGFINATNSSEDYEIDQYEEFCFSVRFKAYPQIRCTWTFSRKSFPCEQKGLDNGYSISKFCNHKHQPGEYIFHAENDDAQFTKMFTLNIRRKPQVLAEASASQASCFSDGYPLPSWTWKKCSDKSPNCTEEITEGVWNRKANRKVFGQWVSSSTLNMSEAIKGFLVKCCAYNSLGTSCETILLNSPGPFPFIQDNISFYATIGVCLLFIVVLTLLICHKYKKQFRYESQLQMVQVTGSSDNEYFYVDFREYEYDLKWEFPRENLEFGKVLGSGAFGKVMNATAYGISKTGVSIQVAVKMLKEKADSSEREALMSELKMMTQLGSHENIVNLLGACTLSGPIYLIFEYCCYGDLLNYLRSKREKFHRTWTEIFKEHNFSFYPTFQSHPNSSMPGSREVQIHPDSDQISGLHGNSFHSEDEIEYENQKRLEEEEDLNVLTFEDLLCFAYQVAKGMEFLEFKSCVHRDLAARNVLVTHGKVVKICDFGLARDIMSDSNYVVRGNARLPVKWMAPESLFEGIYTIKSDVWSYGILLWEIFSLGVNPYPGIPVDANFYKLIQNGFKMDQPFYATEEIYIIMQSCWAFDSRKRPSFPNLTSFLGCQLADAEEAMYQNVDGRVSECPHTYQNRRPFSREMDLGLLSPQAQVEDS
Sequence of Receptor-interacting serine/threonine-protein kinase 2 (O43353 whole entry): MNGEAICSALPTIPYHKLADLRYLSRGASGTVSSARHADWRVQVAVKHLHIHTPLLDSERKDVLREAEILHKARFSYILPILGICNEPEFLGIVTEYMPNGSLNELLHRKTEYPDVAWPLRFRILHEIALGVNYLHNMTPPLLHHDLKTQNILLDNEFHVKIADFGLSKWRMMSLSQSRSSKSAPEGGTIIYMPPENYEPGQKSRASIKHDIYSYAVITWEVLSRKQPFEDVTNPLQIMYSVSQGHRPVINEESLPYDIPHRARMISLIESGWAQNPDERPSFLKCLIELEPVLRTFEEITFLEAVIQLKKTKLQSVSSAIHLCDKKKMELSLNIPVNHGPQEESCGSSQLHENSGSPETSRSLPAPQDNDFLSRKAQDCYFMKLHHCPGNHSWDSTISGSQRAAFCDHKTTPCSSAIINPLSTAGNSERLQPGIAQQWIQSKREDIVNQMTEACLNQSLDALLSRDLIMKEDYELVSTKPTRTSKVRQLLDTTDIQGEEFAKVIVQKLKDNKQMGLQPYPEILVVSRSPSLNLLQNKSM

`C=CCN[C@H]1CC[C@@H](n2cc(-c3ccc(OC)cc3)c3c(N)ncnc32)CC1`: the IC50 in series [1] was determined as 5.2 nM. For the same compound, the Activity in series [2] is 85%; in series [3], 58%. Moreover, the inhibition at 0.1 µM in series [4] worked out at 76%. For the same compound, the half-life at 1 µM in series [5] is 6.3 min.
For `Nc1cccc(-c2cn([C@H]3CC[C@@H](N)CC3)c3ncnc(N)c23)c1`, the Activity in series [2] turned out to be 98%. Further, the inhibition at 0.1 µM in series [4] is 16%.
On to `COc1ccc(-c2cn([C@H]3CC[C@@H](NC(C)=O)CC3)c3ncnc(N)c23)cc1`, for which the IC50 in series [1] worked out at 11.7 nM. For the same compound, the Activity was found to be 80% in series [2] and 57% in series [3]. Moreover, the inhibition at 0.1 µM in series [4] was determined as 27%.
Consider `Nc1ncnc2c1c(-c1cccc(Cl)c1)cn2[C@H]1CC[C@@H](N)CC1`, for which the IC50 in series [1] came out at 5.9 nM. In addition, the Activity in series [2] amounted to 116%. Besides, the inhibition at 0.1 µM in series [4] was 84%. Moreover, the half-life at 1 µM in series [5] was above 120 min. Besides, in series [6], the inhibition at 10 µM is 98%.
For `Nc1ncnc2c1c(-c1cccc(F)c1)cn2[C@H]1CC[C@@H](N)CC1`, in that order: 6.4 nM, 115%, 71%, 107 min and 50%.
As to `CC(C)c1ccc(-c2cn([C@H]3CC[C@@H](N)CC3)c3ncnc(N)c23)cc1`, the Activity in series [2] turned out to be 95%. In series [4], the inhibition at 0.1 µM was -52%.
Turning to `Nc1ccc(-c2cn([C@H]3CC[C@@H](N)CC3)c3ncnc(N)c23)cc1F`, the IC50 in series [1] came to 4 nM. Moreover, in series [2], the Activity is 112%. In series [4], the inhibition at 0.1 µM amounted to 72%. Further, the half-life at 1 µM in series [5] is 69.3 min. For the same compound, the inhibition at 10 µM in series [6] came to 82%.
`COc1ccc(-c2cn([C@H]3CC[C@@H](NC(=O)c4cc(OC)c(OC)c(OC)c4)CC3)c3ncnc(N)c23)cc1`: in series [1], the IC50 was 3.9 nM. The Activity in series [2] was found to be 87%; in series [3] it was 85%. In addition, in series [4], the inhibition at 0.1 µM is 49%.
For `Nc1ncnc2c1c(-c1ccccc1)cn2[C@H]1CC[C@@H](N)CC1`, in series [1], the IC50 came to 9 nM. For the same compound, the Activity in series [2] came to 104%. Further, the inhibition at 0.1 µM in series [4] is 70%. For the same compound, in series [5], the half-life at 1 µM was found to be 148 min. For the same compound, the inhibition at 10 µM in series [6] turned out to be 44%.
As to `Cc1ccc(-c2cn([C@H]3CC[C@@H](N)CC3)c3ncnc(N)c23)cc1Cl`, the half-life at 1 µM in series [5] was determined as 28.2 min.
`CCc1ccc(-c2cn([C@H]3CC[C@@H](N)CC3)c3ncnc(N)c23)cc1`: the Activity in series [2] came to 97%. Further, in series [4], the inhibition at 0.1 µM is 46%.
In the case of `COc1ccc(-c2cn([C@H]3CC[C@@H](N)CC3)c3ncnc(N)c23)cc1`, the half-maximal inhibitory concentration (IC50) came to 3.8 nM in series [7] and 4.2 nM in series [1]. The Activity in series [2] was 97%; in series [3], 68%. Besides, the inhibition at 0.1 µM in series [4] is 69%. Besides, the half-life at 1 µM in series [5] was 108 min.
On to `CCOc1ccc(-c2cn([C@H]3CC[C@@H](N)CC3)c3ncnc(N)c23)cc1`, for which the Activity in series [2] came out at 98%. Also, the inhibition at 0.1 µM in series [4] is -15%.
In the case of `Cc1ccccc1-c1cn([C@H]2CC[C@@H](N)CC2)c2ncnc(N)c12`, the IC50 in series [1] stood at 7.9 nM. In addition, the Activity in series [2] was 99%. In addition, in series [4], the inhibition at 0.1 µM stood at 88%. In addition, the half-life at 1 µM in series [5] was above 120 min. The inhibition at 10 µM in series [6] was 54%.
On to `COc1ccc(-c2cn([C@H]3CC[C@@H](NC(=O)C(C)(C)C)CC3)c3ncnc(N)c23)cc1`, for which the 50% inhibitory concentration (IC50) in series [1] was found to be 15.6 nM. Further, the results for the Activity in series [2] and in series [3] were 77% and 47%, respectively. Moreover, the inhibition at 0.1 µM in series [4] turned out to be 45%.
For `CCCC(=O)N[C@H]1CC[C@@H](n2cc(-c3ccc(OC)cc3)c3c(N)ncnc32)CC1`, in that order: 6 nM, 72%, 49% and 31%.
With `COc1ccc(-c2cn([C@H]3CC[C@@H](NC(=O)C(C)Cl)CC3)c3ncnc(N)c23)cc1` (some centres undefined), the IC50 in series [1] is 16.7 nM. Also, the Activity is 82% in series [2] and 63% in series [3]. Besides, the inhibition at 0.1 µM in series [4] turned out to be 51%.
Consider `Nc1ncnc2c1c(-c1cc(F)cc(F)c1)cn2[C@H]1CC[C@@H](N)CC1`, for which the Activity in series [2] was determined as 114%. For the same compound, in series [4], the inhibition at 0.1 µM is 56%.
For `COc1ccc(-c2cn([C@H]3CC[C@@H](NCc4ccccc4)CC3)c3ncnc(N)c23)cc1`, the IC50 in series [1] amounted to 3 nM. In addition, the Activity in series [2] amounted to 94%; in series [3], 70%. Further, the inhibition at 0.1 µM in series [4] came out at 76%. Besides, the half-life at 1 µM in series [5] came to 1.6 min.
For `CC(C)(C)c1ccc(-c2cn([C@H]3CC[C@@H](N)CC3)c3ncnc(N)c23)cc1`, the Activity in series [2] came out at 93%. Moreover, the inhibition at 0.1 µM in series [4] was -40%.
In the same order, the values of `Nc1ccc(-c2cn([C@H]3CC[C@@H](N)CC3)c3ncnc(N)c23)cc1` are 100% and 22%.
In the case of `Nc1ccccc1-c1cn([C@H]2CC[C@@H](N)CC2)c2ncnc(N)c12`, the Activity in series [2] was determined as 112%. Besides, in series [4], the inhibition at 0.1 µM was -35%.
For `COc1ccc(-c2cn([C@H]3CC[C@@H](NCC#N)CC3)c3ncnc(N)c23)cc1`, in series [1], the IC50 was 6.7 nM. Moreover, the Activity in series [2] amounted to 99%; in series [3], 46%. Besides, the inhibition at 0.1 µM in series [4] is 62%. Further, in series [5], the half-life at 1 µM was found to be 2.7 min.
For `CC(C)Cc1ccc(-c2cn([C@H]3CC[C@@H](N)CC3)c3ncnc(N)c23)cc1`, the Activity in series [2] is 117%. For the same compound, the inhibition at 0.1 µM in series [4] was -23%.
As for `COc1ccc(-c2cn([C@H]3CC[C@@H](NS(=O)(=O)C(F)(F)F)CC3)c3ncnc(N)c23)cc1`, in series [1], the half-maximal inhibitory concentration (IC50) was 21.1 nM. Moreover, the Activity in series [2] turned out to be 73%; in series [3] it was 55%. The inhibition at 0.1 µM in series [4] is -2%.
`Cc1ccc(-c2cn([C@H]3CC[C@@H](N)CC3)c3ncnc(N)c23)cc1C`: the half-life at 1 µM in series [5] turned out to be 22.4 min.
For the compound `CCC(=O)N[C@H]1CC[C@@H](n2cc(-c3ccc(OC)cc3)c3c(N)ncnc32)CC1`, the IC50 in series [1] was 10.8 nM. Further, the figures for the Activity in series [2] and in series [3] were 77% and 54%, respectively. In addition, the inhibition at 0.1 µM in series [4] came to 53%.
For `Nc1ncnc2c1c(-c1ccc(F)cc1)cn2[C@H]1CC[C@@H](N)CC1`, the values for the IC50 in series [7] and in series [1] were 1.7 nM and 1.6 nM, respectively. For the same compound, the Activity in series [2] stood at 125%. Also, in series [4], the inhibition at 0.1 µM turned out to be 72%. Also, in series [5], the half-life at 1 µM was above 120 min. Further, the inhibition at 10 µM in series [6] amounted to 35%.
Consider `Cc1cccc(-c2cn([C@H]3CC[C@@H](N)CC3)c3ncnc(N)c23)c1`, for which the IC50 in series [1] came to 10.7 nM. Further, the Activity in series [2] amounted to 105%. Moreover, the inhibition at 0.1 µM in series [4] was 83%. Besides, the half-life at 1 µM in series [5] amounted to 23.7 min. The inhibition at 10 µM in series [6] was 18%.
Turning to `Nc1ncnc2c1c(-c1ccoc1)cn2[C@H]1CC[C@@H](N)CC1`, the Activity in series [2] was 101%. The inhibition at 0.1 µM in series [4] came out at 13%.
For `Nc1ncnc2c1c(-c1ccc3c(c1)OCO3)cn2[C@H]1CC[C@@H](N)CC1`, in series [1], the IC50 came to 0.8 nM. Moreover, the Activity in series [2] was 119%. In addition, the inhibition at 0.1 µM in series [4] turned out to be 68%. The half-life at 1 µM in series [5] was above 120 min. The inhibition at 10 µM in series [6] worked out at 64%.
In the case of `COc1ccc(-c2cn([C@H]3CC[C@@H](NCc4cccc(OC(F)(F)F)c4)CC3)c3ncnc(N)c23)cc1`, the IC50 in series [1] stood at 18.5 nM. The Activity came out at 105% in series [2] and 86% in series [3]. In series [4], the inhibition at 0.1 µM worked out at 54%.
Regarding `Nc1ncnc2c1c(-c1ccc(O)cc1)cn2[C@H]1CC[C@@H](N)CC1`, in series [1], the IC50 was 6.3 nM. Also, in series [2], the Activity worked out at 96%. Further, the inhibition at 0.1 µM in series [4] worked out at 75%. For the same compound, the half-life at 1 µM in series [5] was 133 min. In series [6], the inhibition at 10 µM was determined as 61%.
Turning to `Nc1ncnc2c1c(-c1ccsc1)cn2[C@H]1CC[C@@H](N)CC1`, the Activity in series [2] is 99%. The inhibition at 0.1 µM in series [4] worked out at 16%.
For `Cc1ccc(-c2cn([C@H]3CC[C@@H](N)CC3)c3ncnc(N)c23)cc1`, the concentration for half-maximal inhibition (IC50) in series [1] was found to be 2.4 nM. For the same compound, in series [2], the Activity turned out to be 114%. Moreover, the inhibition at 0.1 µM in series [4] came out at 99%. Besides, the half-life at 1 µM in series [5] is 27.4 min. Besides, the inhibition at 10 µM in series [6] is 28%.
Turning to `Cc1ccc(-c2cn([C@H]3CC[C@@H](N)CC3)c3ncnc(N)c23)cc1F`, in series [5], the half-life at 1 µM turned out to be 26.9 min.
